Source: US6541500B1, “Fungicide mixture” (BASF Aktiengesellschaft, priority 1998, dated 2003)

Test system: mildew of wheat (Erysiphe graminis forma specialis tritici)
Experiment: Action against mildew of wheat (wheat seedlings cv. Kanzler, protective spray)
Type: in vivo
Details: single active ingredient, wheat leaves, 7 days after inoculation
Procedure: The active compounds, separately or together, are formulated as a 10% strength emulsion in a mixture of 70% by weight of cyclohexanone, 20% by weight of Nekanil® LN (Lutensol® AP6, wetting agent having emulsifying and dispersing action based on ethoxylated alkylphenols) and 10% by weight of Emulphor® EL (Emulan® EL, emulsifier based on ethoxylated fatty alcohols) and diluted with water to the desired concentration.
Evaluation is carried out by determining the infected leaf areas in percent. These percentages are converted into efficacies. The expected efficacies of the mixtures of the active compounds are determined using Colby's formula [R. S. Colby, Weeds 15, 20-22 (1967)] and compared with the observed efficacies.
At an efficacy of 0, the infection level of the treated plants corresponds to that of the untreated control plants; at an efficacy of 100, the treated plants are not infected.
Leaves of wheat seedlings of the cultivar “Kanzler”, grown in pots, were sprayed to run-off point with an aqueous formulation of active ingredient which had been prepared using a stock solution comprising 10% of active ingredient, 63% of cyclohexanone and 27% of emulsifier, and 24 h after the spraycoating had dried on the leaves were dusted with spores of mildew of wheat (Erysiphe graminis forma specialis tritici). The test plants were subsequently placed in climatized chambers at 20-24° C. and 60-90% relative atmospheric humidity for 7 days. The extent of the development of the disease on the leaves was then evaluated visually.
The visually determined values for the percentage of diseased leaf area were converted into efficacies in % of the untreated control. An efficacy of 0 means the same disease level as in the untreated control, an efficacy of 100 means a disease level of 0%. The expected efficacies for the active ingredient combinations were determined using Colby's formula (Colby, S. R. “Calculating synergistic and antagonistic responses of herbicide combinations”, Weeds, 15, pp. 20-22, 1967) and compared with the observed efficacies. […]

## Fc1ccc(Oc2ccnc3cc(Cl)cc(Cl)c23)cc1 [I.78, quinoxyfen]
conc. 0.06 ppm
  Efficacy in % of the untreated control: 0%
conc. 0.25 ppm
  Efficacy in % of the untreated control: 0%
conc. 1 ppm
  Efficacy in % of the untreated control: 33%
